Test results taken from patent US20030013643A1, “Prevention and treatment of streptococcal and staphylococcal infection” (priority 2000, published 2003).

What was measured:
[1] = tested on: wild-type GAS, strain 950771; test: GAS translocation through polarized human keratinocyte monolayers; type: cell-based, Streptococcus pyogenes; settings: for blocking of translocating GAS: pre-treated 30 minutes with 2 mg/ml, compared to untreated monolayers
Procedure: Human keratinocytes were cultured on 3.0 μm filters to allow polarization and establishment of functional intercellular tight junctions. Cells were infected as described previously with wild-type GAS, strain 950771. To assess the ability of exogenously added HA to inhibit the translocation of GAS through the keratinocyte monolayer, cells were pre-treated for 30 minutes with either 2 mg/ml of hyaluronic acid (HA) or another acidic polysaccharide, alginate (AL), at the same concentration. Aliquots of media from the lower chamber of infected keratinocyte monolayers were cultured on blood agar plates at 1 and 2 hours after inoculation with bacteria to assess the number of translocating bacteria. […] In contrast only 20% and 25% of the wild-type bacteria were blocked by AL at 1 and 2 hours, respectively.
(§1) GAS strains were 950771, an M-type 3 strain originally isolated from a child with necrotizing fasciitis, and 188, an isogenic acapsular mutant derived from 950771 (Ashbaugh, C. D., et al., (1998) J. Clin. Invest. 102, 550-560). Bacteria were cultured in Todd Hewitt broth (Difco, Sparks, Md.) to early exponential phase. For preparation of polarized keratinocyte monolayers, human squamous cell carcinoma cell line, SCC13, derived from cheek epidermis (Cline, P. R. & Rice, R. H. (1983) Cancer Res. 43, 3203-3207) was cultured to confluence in serum-free keratinocyte medium (Gibco BRL, Rockville, Md.) supplemented with 50 μg/ml bovine pituitary extract, 0.1 ng/ml epidermal growth factor and 0.3 mM calcium chloride (c-SFM). Certain experiments were performed also using cell monolayers prepared from OKP7 primary human keratinocytes (Crowe et al. (1991) Differentiation 48, 199-208). Keratinocytes were seeded at 5×10^5 cells per well onto polycarbonate Transwell membrane supports (12-well plates, 3.0 μm pore size; Costar, Corning, N.Y.) and cultured for 6-10 days at 37° C. with 5% CO2 in c-SFM, with daily medium changes. Once confluent, the integrity of the monolayer was assessed routinely by measuring permeability to sodium fluorescein (Tchao, R. (1988) Alternative Methods in Toxicology (eds. Goldberg, A. M.) 271-283 (Ann Liebert, N.Y.) and, in some experiments, by measuring transepithelial electrical resistance (McNamara, B. P., et al. (2001) J Clin Invest 107, 621-9).
Keratinocyte monolayers on Transwells were inoculated with GAS at a multiplicity of infection of 10 per keratinocyte. Monolayers were incubated at 37° C. with 5% CO2. The keratinocyte medium in the upper chamber was replaced two hours after adding GAS, and the Transwell inserts containing the keratinocytes were moved to new wells containing fresh medium every 2 hours to prevent overgrowth of translocated bacteria. Translocation was assessed by quantitative cultures of medium from the lower chamber at 2 hour intervals.
As a model of the movement of GAS from the pharyngeal mucosa or skin surface into underlying tissue, GAS translocation was studied in vitro through keratinocyte monolayers. Two hours after inoculation onto the surface of a confluent keratinocyte monolayer, wild-type GAS was detected in the culture medium below the membrane support, indicating migration of the organisms through the monolayer. At each of several intervals after inoculation, approximately 20 to 100 times as many GAS were recovered below monolayers inoculated with wild-type GAS compared to those inoculated with the acapsular mutant strain.(Figure 12a). […] Compared to wild-type GAS strain 950771, the efficiency of translocation was similar for wild-type GAS strains 87-282, a highly encapsulated M-type 18 strain, and for DLS003, a poorly encapsulated M-type 3 strain. Translocation of wild-type GAS was reduced by 78% at 1 hour in experiments in which the keratinocyte monolayers were pretreated with monoclonal antibody IM7.8.1 to block interaction of the GAS capsule with CD44 . […]

[2] = tested on: human keratinocytes; test: Confocal microscopy of actin projections / lamellipodia in keratinocytes exposed to wild-type GAS; type: cell-based; settings: incubation of keratinocytes with inhibitor
Procedure: as §1, with “Keratinocytes were seeded at 5×10^5 cells per well onto polycarbonate Transwell membrane supports (12-well plates, 3.0 μm pore size; Costar, Corning, N.Y.) and cultured for 6-10 days at 37° C. with 5% CO2 in c-SFM, with daily medium changes.” left out, “621-9). […]” for “621-9).”

[3] = tested on: human keratinocytes; test: Immunofluorescent staining of ZO-1 and E-cadherin at intercellular junctions of keratinocytes exposed to GAS; type: cell-based; settings: pretreatment of keratinocytes; wild-type GAS
Procedure: Keratinocyte monolayers were fixed with 4% paraformaldehyde in phosphate buffered saline (PBS), washed, permeabilized with 0.1% Triton X-100 in PBS, then incubated with 0.5% bovine serum albumin in PBS to block non-specific binding sites prior to antibody staining. Primary antibodies included rabbit IgG antibody to GAS group A carbohydrate (ImmuCell, Portland, Me.) at 5 μg/ml, rat monoclonal anti-mouse CD44 (clone IM7.8. 1) (Schrager, H. M., et al., (1998) J. Clin. Invest. 101, 1708-1716) at 15 μg/ml, goat IgG anti-ezrin at 2 μg/ml (Santa Cruz Biotechnology, Santa Cruz, Calif.), goat IgG anti-Rac1 at 2 μg/ml (Santa Cruz Biotechnology), mouse anti-phosphotyrosine at 2 μg/ml (PY-Plus, Zymed Laboratories, Inc., San Francisco, Calif.), rabbit anti-ZO-1 at 2 μg/ml (Zymed), goat anti-E-cadherin at 2 μg/ml (Santa Cruz Biotechnology), and mouse anti-myc monoclonal antibody 9E10 (Santa Cruz Biotechnology). Secondary antibodies included, as appropriate, Texas red- or Alexa 660-conjugated anti-rabbit IgG (Molecular Probes, Eugene, Oreg.), Alexa 568-conjugated anti-rabbit, anti-goat, or anti-rat IgG (Molecular Probes), and FITC-conjugated anti-goat or anti-mouse IgG (Sigma), each diluted 1:250 in 0.5% BSA/PBS. Cellular actin was labeled with 165 nm phalloidin conjugated to Oregon green 514 or to Alexa 488 (Molecular Probes). […]

[4] = tested on: GAS; test: GAS attachment to murine keratinocyte cell line PAM2.12 with exogenous hyaluronic acid; type: cell-based, Streptococcus pyogenes; settings: control polysaccharide, concentration printed 1 /ml
Procedure: For bacterial adherence assays, keratinocytes were seeded at 10^5 cells per well in collagen-coated tissue culture wells (Nalge Nunc International, Naperville, Ill.), incubated for 3 days at 34° C. in 8% CO2, washed, and overlaid with medium containing 10^6 CFU of GAS per well. After incubation for 1 hour at 34° C. in 8% CO2 the keratinocyte monolayers were washed twice to remove nonadherent bacteria, then the number of cell-associated bacteria was determined by quantitative culture after releasing the keratinocytes with try spin and lysing them in sterile water, experiments testing the effects of exogenous hyaluronic acid on GAS adherence were performed using the mouse keratinocyte cell line, PAM 2.12 (Song, I. S. 2000, Exp. Dermatol. 9:42-52). Cells were seeded in collagen-coated tissue culture wells at 10^5 cells per well, cultured for 3 days at 37° C. in 5% CO2, then inoculated with 10^6 CFU of GAS per well in medium containing exogenous hyaluronic acid (from rooster comb, Sigma Chemicals, St. Louis, Mo.), no inhibitor, or a control polysaccharide, alginic acid, a high-molecular-weight polymer of mannuronic acid and guluronic acid (Protonal Durvillea Alginate, Pronova. Biopolymer, Inc., Portsmouth, N.H.). Cells were incubated for 45 minutes at 37° C. in 5% CO2, then processed for enumeration of adherent bacteria as described above. In experiments to test whether exogenous hyaluronic acid could promote dissociation of GAS attached to keratinocytes, GAS were allowed to attach to keratinocytes in the absence of inhibitor; after 45 minutes, the medium was removed and replaced with fresh medium containing hyaluronic acid, no inhibitor, or alginic acid. After 45 minutes of incubation, the number of adherent bacteria was enumerated as described above.
To investigate the specificity of the interaction between the GAS capsule and CD44 on epithelial cells, the ability of exogenous hyaluronic acid to compete with GAS for binding to murine keratinocytes was examined. Addition of exogenous hyaluronic acid to concentration 1 mg/ml[…], inhibited GAS attachment to the murine keratinocyte cell line PAM2.12 by >95% (P<0.03, FIG. 5). A concentration of 1 /ml alginic acid, another high molecular weight acidic polysaccharide, had no effect, supporting the hypothesis that adherence depends on a specific interaction between the GAS hyaluronic acid capsule and CD44 .
In addition to the 1 mg/ml concentration of hyaluronic acid, additional trials were performed as indicated above, with a range of concentrations of hyaluronic acid added to the cells. The concentrations tested included 4 mg/ml, 2 mg/ml, 1 mg/ml, 0.75 mg/ml, 0.5 mg/ml, 0.25 mg/ml and 0.1 mg/ml. The hyaluronic acid concentrations from 4 mg/ml to 0.25 mg/ml blocked GAS binding by greater than 70%. Hyaluronic acid concentrations from 4 mg/ml to 0.5 mg/ml blocked GAS binding by greater than 80% (FIG. 6).

[5] = tested on: GAS; test: GAS translocation through abraded human skin equivalent; type: cell-based, Streptococcus pyogenes; settings: pre-treated at 2 mg/ml for 1 hour; 4 hour infection period
Procedure: To examine GAS translocation in a model system similar to normal human skin, we utilized pseudo-organ cultures of human skin equivalent. This material is made by constructing a “dermis” that consists of human fibroblasts cultured in a collagen matrix; human foreskin keratinocytes are seeded on top of the dermal equivalent and cultured under conditions that promote differentiation into a stratified squamous epithelium with a stratum comeum. The histology of the human skin equivalent is very similar to that of normal human skin except for the absence of non-keratinocyte elements such as blood vessels and hematopoietic cells, nerves, and hair follicles. Since intact human skin is highly resistant to GAS infection, we simulated minor trauma to the superficial epidermis by abrading the surface of the skin equivalent with a cytology brush to introduce breaks in the stratum corneum. GAS were inoculated onto the surface of abraded skin equivalent that had either been pre-treated with nothing, HA, or AL at 2 mg/ml for 1 hour and translocation through the tissue was monitored by culture of GAS from the basal surface of the skin equivalent at intervals. As depicted in FIG. 10, HA inhibited translocation GAS by 91% (solid bars). In comparison the AL control prevented only 14% of bacteria from translocating through the skin equivalent during the 4 hour infection period. […]

Compound	reduction of maximum number of translocated GAS ([1]; 250 μM, at 4 hours)	earliest detectable translocation of wild-type GAS ([1]; 250 μM, delayed from 30 min without inhibitor)	formation of lamellipodia in response to GAS [2]	redistribution (loss) of ZO-1 and E-cadherin from intercellular junctions [3]	effect on GAS attachment to PAM2.12 [4]	blocking of translocating GAS ([1]; 1 hour after inoculation)	blocking of translocating GAS ([1]; 2 hours after inoculation)	inhibition of translocation of GAS through skin equivalent [5]
O=c1c(-c2ccc(O)cc2)coc2cc(O)cc(O)c12 [genistein]	approximately 80%	1 h	inhibit formation of lamellipodia	prevented				
alginic acid					no effect	20%	25%	14%
